“Also recorded” adds a separate entry of the source. Where a name gives a salt, the structure may show the parent alone.
Legend:
[1] = In vitro stability of ethacrynic acid prodrugs at 37° C.; type: physicochemical; conditions: for generation of parent ethacrynic acid as ester linkages are hydrolyzed: 37° C. over 6 days
From the text: As evidenced, both prodrugs of ethacrynic acid degrade steadily over the 6 day period. As the ester linkages are hydrolyzed, the parent compound is generated in a linear rate. The rate of degradation to the parent compound is faster for the shorter […] in comparison to the degradation kinetics for ethacrynic acid-PLA(n=4)-ethyl ester (1).
Approximately 94% of the ECA-PLA(n=4) prodrug (1) has been converted to free ECA by day 6, in comparison to only 56% for ECA-PLA(n=6) (25). Also, by day 6, all the initial prodrug has been degraded into intermediates and free drug respectively.

[2] = Percent drug loading of ethacrynic acid prodrug microparticles (RP-HPLC); type: physicochemical
Protocol: To determine the percent drug loading (% DL), 10 mg of particles was weighed into a glass scintillation vial and dissolved with 10 mL of MeCN:water (1:1, v/v). The solution was filtered through a 0.2 μm nylon syringe filter and the drug content was determined by RP-HPLC referenced against a standard calibration curve.

[3] = Mean size of ethacrynic acid prodrug encapsulated microparticles; type: physicochemical
[4] = Drug release kinetics of Timolol and ethacrynic acid prodrugs from polymer microparticles; type: physicochemical
Protocol: The effect of polymer composition including monomer ratio and molecular weight, polymer end-groups (ester or acid), inherent viscosity and polymer blend ratios on particle degradation and drug release kinetics of Timolol-O-ethyl fumurate (17) was evaluated and is illustrated in FIG. 5. The rate of particle degradation was slowed and drug release was prolonged when the mole % of DL-lactide over glycolide was increased. By incorporating polymers with different monomer ratios (i.e., PLA, PLGA8515, PLGA525, PLGA5050 wherein 8515 refers to 85% DL-lactide and 15% glycolide) into the particles, it is possible to fine-tune the degradation rate of the particles to achieve a linear rate of drug release from the particles to minimize burst or lag and to extend the duration of release. […] The 78/22(PLA 5A/PLGA8515 4.5A) and 65/20/15(PLA 4A/PLGA6515 4.5A/PLGA5050 4A) polymer blends generated ideal particles for a 3-6 month linear release formulation. […] The rate of release was independent of the salt form. […] Thus, release rate is not solely dictated by the physicochemical properties of the linker, but rather must be attributed to a combination of parameters that may include linker type and site of linker conjugation.
FIG. 6 illustrates the release kinetics of ethacrynic acid-PLA(n=4)-ethyl ester (1) from PLGA microparticles. The drug was released over a period of approximately 66 days.
FIG. 8 and FIG. 9 illustrate the release kinetics of ethacrynic acid-PLA(n=4)-ethyl ester (1) and ethacrynic acid-PLA(n=6)-ethyl ester (25), respectively, from PLGA microparticles. The drug was released from a number of formulations over a period of greater than 90 days. […] Particles generated with 1% PVA in PBS was compared against particles generated in 1% PVA in water (FIG. 10).
Based upon these initial formulation screens, the formulation comprising of 1% mPEG-PLGA and 99% PLA100 4.5A:PLGA8515 5A (77:22) was selected as the lead formulation for ECA-PLA(n=4) (1) and ECA-PLA(n=6) (25) prodrugs. The particles were prepared in 1% PVA in water. The release profiles for the lead ECA-PLA(n=4) (1) and ECA-PLA(=6) (25) particle formulations are illustrated in FIG. 11.

[5] = Drug solubility in water, DMSO and DCM (HPLC of filtered supernatant); conditions: for solubility: thermodynamic from solid; for Solubility Water: 50 mg/mL target concentration
Protocol: For each test, approximately 5-10 mg was transferred to a 10 mL glass vial. Aqueous or organic solvent was added to each vial to achieve an overall concentration of 50 mg/mL. After vortexing aggressively for 2-3 minutes and sonicating in a bath sonicator for 5 minutes, undissolved drug was spun down at 1200 rpm for 5 minutes to generate a pellet. The supernatant was collected and filtered through a 0.2 μm nylon syringe filter into HPLC vials for drug content analysis. Drug concentration was determined by comparing against a standard calibration curve.

[6] = In vitro drug release kinetics of Timolol prodrug microparticles in PBS and 1% Tween 20 (pH 7.4) at 37° C.; type: physicochemical; conditions: PBS and 1% Tween 20 (pH 7.4), 37° C.
Protocol: In vitro drug release kinetics were evaluated in a release medium composed of PBS and 1% Tween 20 (pH 7.4). Briefly, 10 mg of particles was suspended in 4 mL of the release medium The particle suspension was incubated on an orbital shaker at 150 rpm at 37° C. At various time points, 3 mL of release media was collected, and the suspension was replenished with 3 mL of fresh release media. Collected release samples were frozen and stored at −80° C. until analysis for drug content. The collected samples were filtered through a 0.2 μm syringe filter and analyzed by RP-HPLC. FIG. 17-FIG. 22 illustrate the total and parent Timolol release profile for the microparticles encapsulating bis-prodrugs of Timolol of Table 11.

[7] = PLA100 4.5A + 1% PEG-PLGA5050, polymer 200 mg/mL
[8] = PLA100 4.5A + PLGA7525 6E (69:30) + 1% PEG-PLGA5050, polymer 200 mg/mL
[9] = PLA100 4.5A + PLGA8515 5A (77:22) + 1% PEG-PLGA5050, polymer 200 mg/mL
[10] = PLA100 4.5A + PLGA8515 5A + PLGA5050 4A (64:20:15) + 1% PEG-PLGA5050, polymer 200 mg/mL
[11] = PLA100 4.5A + PLGA8515 5A + PLGA5050 4A (64:30:5) + 1% PEG-PLGA5050, polymer 200 mg/mL
[12] = PLGA7525 4A + 1% PEG-PLGA5050, polymer 200 mg/mL
[13] = PLGA7525 6A + 1% PEG-PLGA5050, polymer 200 mg/mL
[14] = PLGA8515 5A + 1% PEG-PLGA5050, polymer 200 mg/mL
[15] = PLGA8515 5A + PLGA7525 4A (69:30) + 1% PEG-PLGA5050, polymer 200 mg/mL
[16] = DMSO, organic solvent or mixture
[17] = DCM, organic solvent or mixture

C=C(CC)C(=O)c1ccc(OCC(=O)O[C@@H](C)C(=O)O[C@@H](C)C(=O)O[C@@H](C)C(=O)O[C@@H](C)C(=O)OCC)c(Cl)c1Cl [Compound 1, (S)-2-{2-[2,3-Dichloro-4-(2-methylene-butyryl)-phenoxy]-acetoxy}-propionic acid (S)-1-[(S)-1-((S)-1-ethoxycarbonyl-ethoxycarbonyl)-ethoxycarbonyl]-ethyl ester]
generation of parent ethacrynic acid as ester linkages are hydrolyzed [1]: generated at a linear rate | rate of degradation of the prodrug ([1]; 37° C., 6 days): slightly faster | prodrug converted to free ECA by day 6 ([1]; 37° C., day 6): Approximately 94% | % Drug loading [2, 7]: 13.42% | % Drug loading [2, 8]: 14.17% | % Drug loading [2, 9]: 12.56% | % Drug loading [2, 10]: 13.75% | % Drug loading [2, 11]: 12.68% | % Drug loading [2, 12]: 13.09% | % Drug loading [2, 13]: 13.15% | % Drug loading [2, 14]: 13.59% | % Drug loading [2, 15]: 13.49% | Mean size [3, 7]: 35.06 um | Mean size [3, 8]: 27.40 um | Mean size [3, 9]: 26.60 um | Mean size [3, 10]: 28.34 um | Mean size [3, 11]: 29.86 um | Mean size [3, 12]: 29.85 um | Mean size [3, 13]: 25.21 um | Mean size [3, 14]: 28.90 um | Mean size [3, 15]: 27.74 um | in vitro release profile of lead microparticle formulation ([4]; 1% mPEG-PLGA and 99% PLA100 4.5A:PLGA8515 5A (77:22), prepared in 1% PVA in water, FIG. 11): typical biphasic release profile | period over which the drug was released ([4]; microparticles of PLA/PLGA blends, PLGA blends, FIG. 6): approximately 66 days | solubility [5, 16]: > 40 mg/mL | solubility ([5]; water): < 1 mg/mL

C=C(CC)C(=O)c1ccc(OCC(=O)O[C@@H](C)C(=O)O[C@@H](C)C(=O)OCC)c(Cl)c1Cl [Compound 2, 2-{2-[2,3-Dichloro-4-(2-methylene-butyryl)-phenoxy]-acetoxy}-propionic acid 1-ethoxycarbonyl-ethyl ester]
generation of parent ethacrynic acid as ester linkages are hydrolyzed [1]: generated at a linear rate | rate of degradation to the parent compound / conversion to the free drug ([1]; 37° C., 6 days, comparison between prodrugs): degraded faster; also recorded: significantly faster | solubility [5, 16]: > 50 mg/mL | solubility ([5]; water): < 1 mg/mL

CC(C)(C)NC[C@@H](COc1nsnc1N1CCOCC1)OC(=O)CCC(=O)O [Compound 4, Succinic acid mono-[(S)-1-(tert-butylamino-methyl)-2-(4-morpholin-4-yl-[1,2,5]thiadiazol-3-yloxy)-ethyl] ester]
solubility [5, 16]: > 50 mg/mL | solubility ([5]; water): > 50 mg/mL

CCOC(=O)CCC(=O)O[C@@H](CNC(C)(C)C)COc1nsnc1N1CCOCC1.O=C(O)/C=C\C(=O)O [Compound 5, Timolol-O-Ethylsuccinate Maleate]
solubility [5, 16]: > 50 mg/mL | solubility ([5]; water): 12.5 mg/mL

CCOC(=O)CCC(=O)O[C@@H](CNC(C)(C)C)COc1nsnc1N1CCOCC1.Cl [Compound 6, Timolol-O-Ethylsuccinate HCL]
solubility [5, 16]: > 50 mg/mL | solubility ([5]; water): 6.25 mg/mL

CC(C)(C)NC[C@@H](COc1nsnc1N1CCOCC1)OC(=O)/C=C\C(=O)O [Compound 7, Timolol-O-Maleate]
solubility [5, 16]: > 50 mg/mL | solubility ([5]; water): > 50 mg/mL

CCOC(=O)/C=C\C(=O)O[C@@H](CNC(C)(C)C)COc1nsnc1N1CCOCC1.O=C(O)/C=C\C(=O)O [Compound 8, Timolol-O-Ethylmaleate-Maleic Acid]
solubility [5, 16]: > 50 mg/mL | solubility ([5]; water): < 1 mg/mL

CCCCCCCCCCCCOC(=O)/C=C/C(=O)O[C@@H](CNC(C)(C)C)COc1nsnc1N1CCOCC1 [Compound 12, Timolol-O-Laurylfumurate-Maleate]
solubility [5, 16]: > 100 mg/mL | solubility ([5]; water): < 1 mg/mL

CCN[C@H]1C[C@H](C)S(=O)(=O)c2sc(S(=O)(=O)NC(=O)/C=C/C(=O)OCC)cc21 [Compound 14, Dorzolamide-Ethylfumurate]
solubility [5, 17]: > 100 mg/mL | solubility [5, 16]: > 100 mg/mL | solubility ([5]; water): < 1 mg/mL

CCOC(=O)/C=C/C(=O)O[C@@H](CNC(C)(C)C)COc1nsnc1N1CCOCC1 [Compound 17, Timolol-O-Ethylfumurate]
linear release profile ([4]; microparticles, 78/22(PLA 5A/PLGA8515 4.5A) and 65/20/15(PLA 4A/PLGA6515 4.5A/PLGA5050 4A) polymer blends, FIG. 5): 3-6 month | solubility [5, 16]: > 50 mg/mL | solubility ([5]; water): < 1 mg/mL | Solubility Water ([5]; water): <1.0 mg/mL

CCOC(=O)/C=C\C(=O)OC(CNC(C)(C)C)COc1nsnc1N1CCOCC1 (centres unmarked) [Compound 18, Timolol-O-Ethyl Maleate]
solubility [5, 16]: > 100 mg/mL | solubility ([5]; water): > 25 mg/mL

C=C(CC)C(=O)c1ccc(OCC(=O)O[C@@H](C)C(=O)O[C@@H](C)C(=O)O[C@@H](C)C(=O)O[C@@H](C)C(=O)O[C@@H](C)C(=O)O[C@@H](C)C(=O)O[C@@H](C)C(=O)O[C@@H](C)C(=O)OCC)c(Cl)c1Cl [Compound 26]
solubility [5, 16]: > 50 mg/mL | solubility ([5]; water): < 0.1 mg/mL

CC(=O)OC(C)C(=O)OC(C)C(=O)OC(C)C(=O)OC(C)C(=O)N(C[C@@H](COc1nsnc1N1CCOCC1)OC(=O)C(C)OC(=O)C(C)OC(C)=O)C(C)(C)C (some centres unmarked) [Compound 55, Timolol-Bis-N-Acetyl-PLA (n = 4)-O-Acetyl PLA (n = 2)]
parent Timolol released relative to total release of prodrug and intermediates [6]: significantly less

CC(=O)OC(C)C(=O)OC(C)C(=O)OC(C)C(=O)OC(C)C(=O)O[C@H](COc1nsnc1N1CCOCC1)CN(C(=O)C(C)OC(=O)C(C)OC(C)=O)C(C)(C)C (some centres unmarked) [Compound 56, Timolol-Bis-N-Acetyl-PLA (n = 2)-O-Acetyl-PLA (n = 4)]
parent Timolol released relative to total release of prodrug and intermediates [6]: significantly less

CCN[C@H]1C[C@H](C)S(=O)(=O)c2sc(S(N)(=O)=O)cc21 [Dorzolamide, reference compound]
solubility [5, 17]: < 1 mg/mL | solubility [5, 16]: < 1 mg/mL | solubility ([5]; water): > 50 mg/mL

Dorzolamide-Laurylmaleate [Compound 16]
Solubility DMSO ([5]; DMSO): >50 mg/mL | Solubility Water ([5]; water): <1.0 mg/mL

Dorzolamide-Stearylfumurate [Compound 15]
Solubility DMSO ([5]; DMSO): >100 mg/mL | Solubility Water ([5]; water): >50 mg/mL

Timolol-Bis-Acetyl PLA (n = 4) [Compound 54]
parent Timolol released relative to total release of prodrug and intermediates [6]: significantly less
